The numbers were not newly measured in patent US10993951B2, “Fosfomycin formulation for parenteral administration” (priority 2016, dated 2021), which cites them from elsewhere.

Structures can show the parent of a compound that is named as a salt.

For this series the following is noted: cited from earlier work.

Turning to `C[C@@H]1O[C@@H]1P(=O)(O)O` [Fosfomycin disodium salt, fosfomycin disodium salt], the solubility in water entry is on record as “highly soluble”.
